Earlier results on one molecule are cited in US12343427B1, “Stable intravenous diltiazem hydrochloride formulation and use thereof” (Nivagen Pharmaceuticals, Inc., priority 2024, dated 2025).

Each structure is given as a SMILES string.

The series has as its target CYP2D6 (Homo sapiens, UniProt P10635). The settings on record: Molden E, et al. Drug Metab Dispos. 30: 1-3 (2002).

CYP2D6, sequence (P10635 whole entry): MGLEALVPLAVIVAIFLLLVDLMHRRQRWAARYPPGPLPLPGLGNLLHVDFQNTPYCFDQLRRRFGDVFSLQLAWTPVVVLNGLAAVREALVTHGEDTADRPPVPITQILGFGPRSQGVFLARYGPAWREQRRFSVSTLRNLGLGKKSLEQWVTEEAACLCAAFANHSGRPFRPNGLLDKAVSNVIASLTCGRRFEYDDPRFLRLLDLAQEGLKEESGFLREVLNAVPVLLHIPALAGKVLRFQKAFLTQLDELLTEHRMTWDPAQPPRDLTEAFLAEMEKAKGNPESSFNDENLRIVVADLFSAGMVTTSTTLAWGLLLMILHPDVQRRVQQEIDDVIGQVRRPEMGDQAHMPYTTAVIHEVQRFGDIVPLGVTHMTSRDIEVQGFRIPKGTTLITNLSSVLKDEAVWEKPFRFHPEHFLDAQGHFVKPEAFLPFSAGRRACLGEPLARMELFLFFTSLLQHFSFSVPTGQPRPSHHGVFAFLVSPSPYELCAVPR

For `COc1ccc([C@@H]2Sc3ccccc3N(CCN(C)C)C(=O)[C@@H]2O)cc1` [Desacetyl-diltiazem], the “affinity to CYP2D6 compared with CYP3A4” value is on record as “severalfold higher affinity to CYP2D6 compared with CYP3A4”.
